In US12084420B2, “Indoline compounds for inhibiting KIF18A” (Volastra Therapeutics, Inc., priority 2021, dated 2024):

Key:
[1] = target: KIF18a-Microtubule Complex (Homo sapiens (Human), UniProt Q8NI77); test: Binding kinetics to KIF18a-microtubule complex (global progress curve analysis); conditions: for koff (off-rate from binding kinetics assay) / kon (on-rate from binding kinetics assay): global progress curve analysis; for Ki: read-out: KI (determined from binding kinetic assay koff/kon), koff/kon; for koff: read-out: koff (off-rate from binding kinetics assay)
Protocol: Binding Kinetics to KIF18a-Microtubule Complex
Compound binding kinetics parameters (kon and koff) were determined by the method of global progress curve analysis (GPCA). […] ADP product levels were determined by the Promega® ADP-Glo assay. The time/dose-dependent progress curves were then globally fit to a Michaelis-Menten kinetics model with 1-step slow binding inhibition to derive both on-rate kon and off-rate koff values (Zhang, R., Wong, K. (2017): “High performance enzyme kinetics of turnover, activation and inhibition for translational drug discovery”, Expert Opinion on Drug Discovery, 2017 January; 12(1):17-37. doi: 10.1080/17460441.2017.1245721).

[2] = target: hKIF18A (1-374) (Homo sapiens (Human), UniProt Q8NI77); test: Inhibition of KIF18A microtubule-dependent ATPase activity (ADP-Glo); conditions: KIF18A microtubule-dependent ATPase activity, biochemical assay
hKIF18A (1-374), sequence (Q8NI77 whole entry, looked up): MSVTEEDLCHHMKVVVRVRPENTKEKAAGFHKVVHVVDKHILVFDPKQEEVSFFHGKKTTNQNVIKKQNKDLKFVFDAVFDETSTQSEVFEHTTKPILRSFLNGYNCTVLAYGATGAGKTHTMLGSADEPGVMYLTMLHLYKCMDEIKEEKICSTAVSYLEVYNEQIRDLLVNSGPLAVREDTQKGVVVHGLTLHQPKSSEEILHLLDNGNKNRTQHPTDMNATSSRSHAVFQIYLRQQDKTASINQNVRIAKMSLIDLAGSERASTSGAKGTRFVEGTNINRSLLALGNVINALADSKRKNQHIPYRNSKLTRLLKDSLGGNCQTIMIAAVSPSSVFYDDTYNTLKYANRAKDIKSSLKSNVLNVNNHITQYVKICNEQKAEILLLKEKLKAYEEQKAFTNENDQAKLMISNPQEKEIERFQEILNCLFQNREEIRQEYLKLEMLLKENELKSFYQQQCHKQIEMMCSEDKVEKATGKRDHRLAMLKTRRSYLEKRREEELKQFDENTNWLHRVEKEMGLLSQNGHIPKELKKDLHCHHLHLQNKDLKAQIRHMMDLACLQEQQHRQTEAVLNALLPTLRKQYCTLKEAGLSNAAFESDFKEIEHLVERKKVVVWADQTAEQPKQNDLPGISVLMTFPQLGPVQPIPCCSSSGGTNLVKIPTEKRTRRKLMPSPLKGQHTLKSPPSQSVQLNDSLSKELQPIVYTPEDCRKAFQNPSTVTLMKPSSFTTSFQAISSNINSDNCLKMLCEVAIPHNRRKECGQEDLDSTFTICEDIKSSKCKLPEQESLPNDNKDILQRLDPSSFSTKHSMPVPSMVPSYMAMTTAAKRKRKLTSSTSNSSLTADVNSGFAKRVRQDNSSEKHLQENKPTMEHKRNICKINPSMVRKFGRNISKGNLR
hKIF18A (1-374), sequence (Q2XVP4 whole entry partner, looked up): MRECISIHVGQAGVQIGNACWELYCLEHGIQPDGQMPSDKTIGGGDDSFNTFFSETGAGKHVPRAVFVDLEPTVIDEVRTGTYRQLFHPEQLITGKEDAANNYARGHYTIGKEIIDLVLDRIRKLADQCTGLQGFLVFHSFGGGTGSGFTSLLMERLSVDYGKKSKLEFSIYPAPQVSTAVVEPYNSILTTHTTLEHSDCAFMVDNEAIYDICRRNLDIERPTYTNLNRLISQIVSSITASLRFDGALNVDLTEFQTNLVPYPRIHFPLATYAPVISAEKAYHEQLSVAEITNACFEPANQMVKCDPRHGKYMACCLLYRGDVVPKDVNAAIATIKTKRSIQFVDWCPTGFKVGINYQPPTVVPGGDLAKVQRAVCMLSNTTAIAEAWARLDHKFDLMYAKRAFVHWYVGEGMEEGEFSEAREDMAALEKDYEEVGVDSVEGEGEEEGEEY
hKIF18A (1-374), sequence (P02554 whole entry partner, looked up): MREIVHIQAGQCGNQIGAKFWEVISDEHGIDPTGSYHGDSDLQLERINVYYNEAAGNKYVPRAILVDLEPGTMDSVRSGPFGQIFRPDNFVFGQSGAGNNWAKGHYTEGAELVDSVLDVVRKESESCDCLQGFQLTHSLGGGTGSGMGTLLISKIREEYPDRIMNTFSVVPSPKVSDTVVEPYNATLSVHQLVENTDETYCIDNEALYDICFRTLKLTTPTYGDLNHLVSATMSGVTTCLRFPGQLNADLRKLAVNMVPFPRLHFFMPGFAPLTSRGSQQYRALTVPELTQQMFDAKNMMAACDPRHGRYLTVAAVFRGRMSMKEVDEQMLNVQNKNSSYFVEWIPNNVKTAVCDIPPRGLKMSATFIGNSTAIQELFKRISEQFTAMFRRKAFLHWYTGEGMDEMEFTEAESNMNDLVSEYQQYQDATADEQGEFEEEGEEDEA
Protocol: Biological Assays Inhibition of KIF18A Microtubule-Dependent ATPase Activity:
Test compounds were plated in a 3× dilution scheme in a 384-well plate. Assay buffer: 80 mM PIPES (pH 6.9), 1 mM MgCl2, 75 mM KCl, 1 mM EGTA, 1 mM DTT, 0.01% BSA, 0.005% Tween-20, 1 μM Taxol in H2O. […] After incubation at room temperature for 30 min, 2.5 μL of microtubule mix was added [0.2 mg/mL pre-formed microtubules, 2.0 mM ATP in assay buffer], the plate was centrifuged for 30 s and then incubated at 28° C. for 60 min. 5 μL of Promega® ADP-Glo Max R1 was added, the plate was centrifuged for 30 s, and the mixture incubated for 4 h at room temperature. 10 μL of Promega® ADP-Glo Max R2 was added, the plate centrifuged for 30 s, and incubated for 60 min at room temperature. Luminescence was measured with an Envision plate reader, and % Inhibition was calculated for each well as: ([max−min]−[test−min])/[max−min]. IC50 values were calculated from concentration vs. % Inhibition data via a four-parameter variable slope model.

KIF18a-Microtubule Complex, sequence (Q8NI77 whole entry, looked up): as the sequence (Q8NI77 whole entry, looked up) above
KIF18a-Microtubule Complex, sequence (Q2XVP4 whole entry partner, looked up): as the sequence (Q2XVP4 whole entry partner, looked up) above
KIF18a-Microtubule Complex, sequence (P02554 whole entry partner, looked up): as the sequence (P02554 whole entry partner, looked up) above

| IC50 [2] | Structure (SMILES) | also measured |
| --- | --- | --- |
| 51 nM | CC(C)(C)NS(=O)(=O)c1cccc(C(=O)N2CC3(CCC(F)(F)CC3)c3cc(NS(C)(=O)=O)ccc32)c1 [Compound 144, N-(tert-butyl)-3-(4,4-difluoro-5′-(methylsulfonamido)spiro[cyclohexane-1,3′-indoline]-1′-carbonyl)benzenesulfonamide] | kon (on-rate from binding kinetics assay) [1]: 4170 M⁻¹ s⁻¹; disc. t1/2 (dissociation half-life ln(2)/koff) [1]: 5.2 h; Ki [1]: 9.3 nM; koff [1]: 3.89e-05 s⁻¹ |
| 79 nM | CCS(=O)(=O)Nc1ccc2c(c1)C1(CCC3(CC3)CC1)CN2C(=O)c1cc(S(=O)(=O)NC(C)(C)C)cs1 [Compound 269, N-(tert-butyl)-5-(5″- (ethylsulfonamido)dispiro[cyclopropane-1,1′-cyclohexane-4′,3″-indoline]-1″- carbonyl)thiophene-3-sulfonamide] | kon (on-rate from binding kinetics assay) [1]: 5560 M⁻¹ s⁻¹; disc. t1/2 (dissociation half-life ln(2)/koff) [1]: 8.7 h; Ki [1]: 4 nM; koff [1]: 2.22e-05 s⁻¹ |
| 49 nM | CC(C)(C)NS(=O)(=O)c1cccc(C(=O)N2CC3(CCC4(CC4)CC3)c3cc(C(O)C(F)(F)F)ccc32)c1 (stereo not shown) [Compound 338, N-(tert-butyl)-3-(5″-(2,2,2-trifluoro-1-hydroxyethyl)dispiro[cyclopropane-1,1′-cyclohexane-4′,3″-indoline]-1″-carbonyl)benzenesulfonamide] |  |
| 35 nM | CP(=O)(CC1CCC1)c1cccc(C(=O)N2CC3(CCC4(CC4)CC3)c3cc(NS(C)(=O)=O)ccc32)c1 (stereo not shown) [Compound 362] |  |
| 35 nM | CS(=O)(=O)Nc1ccc2c(c1)C1(CCC3(CC3)CC1)CN2C(=O)c1cccc(S(=O)(=O)NC2(C#N)CC2)c1 [Compound 264, N-(1-cyanocyclopropyl)-3-(5″- (methylsulfonamido)dispiro[cyclopropane-1,1′-cyclohexane-4′,3″-indoline]-1″-carbonyl)benzenesulfonamide] |  |
| 45 nM | CS(=O)(=O)Nc1ccc2c(c1)C1(CCC3(CC3)CC1)CN2C(=O)c1cccc(CN2CCC(F)(F)C2)c1 [Compound 349, N-(1″-(3-((3,3-difluoropyrrolidin-1-yl)methyl)benzoyl)dispiro [cyclopropane-1,1′-cyclohexane-4′,3″-indolin]-5″- yl)methanesulfonamide] |  |
| 5.8 nM | CS(=O)(=O)Nc1ccc2c(c1)C1(CCC3(CC3)CC1)CN2C(=O)c1csc(S(=O)(=O)NC2CCC2)c1 [Compound 291, N-cyclobutyl-4-(5″- (methylsulfonamido)dispiro[cyclopropane-1,1′-cyclohexane-4′,3″-indoline]-1″-carbonyl)thiophene-2-sulfonamide] |  |
| 6.3 nM | CS(=O)(=O)Nc1ccc2c(c1)C1(CCC3(CC3)CC1)CN2C(=O)c1ccc(S(=O)(=O)N2CC3(CCC3)C2)o1 [Compound 321, N-(1″-(5-((2-azaspiro[3.3]heptan-2-yl)sulfonyl)furan-2-carbonyl)dispiro[cyclopropane-1,1′-cyclohexane-4′,3″-indolin]-5″- yl)methanesulfonamide] |  |
| 1100 nM | Cc1oc(C(=O)N2CC3(CCCCC3)c3cc(NS(C)(=O)=O)ccc32)cc1S(=O)(=O)NC(C)(C)C [Compound 57, N-(tert-butyl)-2-methyl-5-(5′-(methylsulfonamido)spiro[cyclohexane-1,3′-indoline]-1′-carbonyl)furan-3-sulfonamide] |  |
| 4.8 nM | C=C1CC(NS(=O)(=O)c2cccc(C(=O)N3CC4(CCC5(CC5)CC4)c4cc(NS(C)(=O)=O)ccc43)c2)C1 [Compound 190, N-(3-methylenecyclobutyl)-3-(5″- (methylsulfonamido)dispiro[cyclopropane-1,1′-cyclohexane-4′,3″-indoline]-1″-carbonyl)benzenesulfonamide] |  |
| 9.3 nM | CCS(=O)(=O)Nc1ccc2c(c1)C1(CCC3(CC3)CC1)CN2C(=O)c1cccc(S(=O)(=O)NC2CCC2)c1 [Compound 261, N-cyclobutyl-3-(5″- (ethylsulfonamido)dispiro[cyclopropane-1,1′-cyclohexane-4′,3″-indoline]-1″- carbonyl)benzenesulfonamide] |  |
| 810 nM | Cc1cc(C(=O)N2CC3(CCC4(CC4)CC3)c3cc(NS(C)(=O)=O)ccc32)nc(CN2CCC(F)(F)CC2)n1 [Compound 343, N-(1″-(2-((4,4-difluoropiperidin-1-yl)methyl)-6-methylpyrimidine-4-carbonyl)dispiro[cyclopropane-1,1′-cyclohexane-4′,3″-indolin]-5″- yl)methanesulfonamide] |  |
| 1000 nM | CC(C)(C)NS(=O)(=O)c1cccc(C(=O)N2CC3(CCC4(CC4)CC3)c3cc(Br)ccc32)c1 [Compound 9, 3-(5″-bromodispiro[cyclopropane-1,1′-cyclohexane-4′,3″-indoline]-1″- carbonyl)-N-(tert-butyl)benzenesulfonamide] |  |
| 8.8 nM | CS(=O)(=O)Nc1ccc2c(c1)C1(CCC3(CC3)CC1)CN2C(=O)c1ccc(F)c(S(=O)(=O)NC23CC(C2)C3)c1 [Compound 337, N-(bicyclo[1.1.1]pentan-1-yl)-2-fluoro-5-(5″-(methylsulfonamido)dispiro[cyclopropane-1,1′-cyclohexane-4′,3″-indoline]-1″- carbonyl)benzenesulfonamide] |  |
| 100 nM | CC(C)(C)NS(=O)(=O)c1cccc(C(=O)N2C[C@]3(CC[C@@H](C(F)(F)F)CC3)c3cc(NS(C)(=O)=O)ccc32)c1 [Compound 361b] |  |
| 17 nM | CC(C)(C)NS(=O)(=O)c1cc(C(=O)N2CC3(CCCCC3)c3cc(NS(=O)(=O)CCO)ccc32)cs1 [Compound 289, N-(tert-butyl)-4-(5′-((2-hydroxyethyl)sulfonamido)spiro [cyclohexane-1,3′-indoline]-1′-carbonyl)thiophene-2-sulfonamide] |  |
| 8.2 nM | CS(=O)(=O)Nc1ccc2c(c1)C1(CCC3(CC3)CC1)CN2C(=O)c1ccc(O)c(S(=O)(=O)N2CC(F)(F)C2)c1 [Compound 303, N-(1″-(3-((3,3-difluoroazetidin-1-yl)sulfonyl)-4-hydroxybenzoyl)dispiro[cyclopropane-1,1′-cyclohexane-4′,3″-indolin]-5″-yl)methanesulfonamide] |  |
| 63 nM | CC1(O)CN(S(=O)(=O)c2cccc(C(=O)N3CC4(CCC5(CC5)CC4)c4cc(NS(C)(=O)=O)ccc43)c2)C1 [Compound 255, N-(1″-(3-((3-hydroxy-3-methylazetidin-1-yl)sulfonyl)benzoyl)dispiro[cyclopropane-1,1′-cyclohexane-4′,3″-indolin]-5″- yl)methanesulfonamide] |  |
| 18 nM | CCS(=O)(=O)Nc1ccc2c(c1)C1(CCC3(CC3)CC1)CN2C(=O)c1ccc(F)c(S(=O)(=O)NC(C)(C)C)c1 [Compound 340, N-(tert-butyl)-5-(5″- (ethylsulfonamido)dispiro[cyclopropane-1,1′-cyclohexane-4′,3″-indoline]-1″- carbonyl)-2-fluorobenzenesulfonamide] |  |
| 41 nM | CC(C)(C)NS(=O)(=O)c1cc(C(=O)N2CC3(CCC(F)(F)CC3)c3cc(NS(C)(=O)=O)ccc32)cs1 [Compound 277, N-(tert-butyl)-4-(4,4-difluoro-5′-(methylsulfonamido)spiro[cyclohexane-1,3′-indoline]-1′-carbonyl)thiophene-2-sulfonamide] |  |
| 58 nM | CS(=O)(=O)Nc1ccc2c(c1)C1(CCC3(CC3)CC1)CN2C(=O)c1cccc(CN2CC(F)(F)C2)c1 [Compound 345, N-(1″-(3-((3,3-difluoroazetidin-1-yl)methyl)benzoyl)dispiro[cyclopropane-1,1′-cyclohexane-4′,3″-indolin]-5″-yl)methanesulfonamide] |  |
| 6 nM | CC(C)(C)NS(=O)(=O)c1cc(C(=O)N2CC3(CCC4(CC4)CC3)c3cc(NS(=O)(=O)CCO)ccc32)cs1 [Compound 274, N-(tert-butyl)-4-(5″-((2-hydroxyethyl)sulfonamido)dispiro [cyclopropane-1,1′-cyclohexane-4′,3″- indoline]-1″-carbonyl)thiophene-2-sulfonamide] |  |
| 25 nM | CC(c1cccc(C(=O)N2CC3(CCC4(CC4)CC3)c3cc(NS(C)(=O)=O)ccc32)c1)N1CCC(F)(F)CC1 (stereo not shown) [Compound 341, N-(1″-(3-(1-(4,4-difluoropiperidin-1-yl)ethyl)benzoyl)dispiro[cyclopropane-1,1′-cyclohexane-4′,3″-indolin]-5″-yl)methanesulfonamide] |  |
| 1600 nM | O=C(c1cccc(S(=O)(=O)N2CCC(F)(F)CC2)c1)N1CC2(CCCC2)c2ccccc21 [Compound 3, (3-((4,4-difluoropiperidin-1-yl)sulfonyl)phenyl)(spiro[cyclopentane-1,3′-indolin]-1′-yl)methanone] |  |
| 2600 nM | O=C(c1cccc(S(=O)(=O)N2CCCCC2)c1)N1CC2(CCCC2)c2c(F)cccc21 [Compound 1′, (4′-fluorospiro[cyclopentane-1,3′-indolin]-1′-yl)(3-(piperidin-1-ylsulfonyl)phenyl)methanone] |  |

| Structure (SMILES) | IC50 [2] | also measured |
| --- | --- | --- |
| CS(=O)(=O)Nc1ccc2c(c1)C1(CCC3(CC3)CC1)CN2C(=O)c1cccc([C@H](O)C2CCCC2)n1 (single isomer, unassigned) [Compound 317b] | 10 nM | koff (off-rate from binding kinetics assay) [1]: 9.72e-05 s⁻¹; kon (on-rate from binding kinetics assay) [1]: 16400 M⁻¹ s⁻¹; disc. t1/2 (dissociation half-life ln(2)/koff) [1]: 2.0 h; Ki [1]: 5.9 nM |
| CS(=O)(=O)Nc1ccc2c(c1)C1(CCC3(CC3)CC1)CN2C(=O)c1cccc([C@@H](O)C2CCCC2)n1 (single isomer, unassigned) [Compound 317a] | 11 nM | koff (off-rate from binding kinetics assay) [1]: 9.17e-05 s⁻¹; kon (on-rate from binding kinetics assay) [1]: 9170 M⁻¹ s⁻¹; disc. t1/2 (dissociation half-life ln(2)/koff) [1]: 2.1 h; Ki [1]: 10 nM |
